Laboratory results from ChEMBL document CHEMBL1201862, “PubChem BioAssay data set” (2004).
The source made the active and inactive calls.

Tests used:
[1] = Luminescence Cell-Based Dose Response HTS to Identify Inhibitors of 5'UTR Stem-Loop Driven Prion Protein mRNA Translation in H4 Neuroglioblastoma Cells. [Related pubchem assays: 1827 (Project Summary), 1813 (Primary HTS)]; assay type: functional
[2] = inhibitors of SNCA 5'UTR-driven reporter translation, confirmation, H4 neuroglioma cells, luminescence (AID 1988); assay type: functional, cell-based
HEK293 = test: inhibitors of LMP1-driven NF-kB reporter, dose response, cell-based, HEK293, luciferase, cherry-pick (AID 588343); assay type: functional; settings: Homo sapiens
[3] = inhibitors of firefly luciferase expression or activity, dose response, H4 neuroglioma cells, luminescence (AID 1990); assay type: functional, cell-based
BJ [4] = test: cytotoxicity toward BJ-TERT-LT-ST fibroblasts, dose response, cell-based, RAS-independent, luminescence (AID 1935); assay type: functional; settings: Homo sapiens;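 also: BJ fibroblasts immortalized with TERT plus LT and ST oncogenes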
[5] = test system: Streptococcus sp. 'group A'; test: growth inhibition of control SK(-) GAS strain, dose response, counter-screen for streptokinase expression inhibitor project, luminescence, kanamycin, BacTiterGlo, confirmation (AID 1900); assay type: functional, organism-based
[6] = Shn3 3'UTR reporter inhibitors, dose response, cell-based, Clone20 osteoblasts, firefly luciferase, cherry-picked (AID 624132); assay type: functional;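 also: firefly luciferase luminescence from reporter carrying the Shn3 3'UTR in osteoblasts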
[7] = control 3'UTR Renilla luciferase suppression, dose response, counter-screen for Shn3 inhibitor project, cell-based, Clone20-Shn3RL, cherry-picked (AID 624133); assay type: functional
INS1 = test: beta cell apoptosis inhibitors, cytokine rescue, dose response, luminescence, retest (AID 449756); assay type: functional, cell-based; settings: Rattus norvegicus;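 also: cell death triggered by IL-1 beta plus TNF-alpha plus IFN-gamma mixture; protective hits raise ATP signal compared with cytokine alone wells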
Streptococcus = test: Group A Streptococcus viability loss, dose response, counter-screen for streptokinase expression inhibitor project, luminescence, BacTiterGlo (AID 1915); assay type: functional, organism-based;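 also: potency for reduction of bacterial viability or growth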
[8] = cytotoxicity toward DRD oncogenic fibroblasts, dose response, cell-based, non-viral oncogenic, luminescence (AID 1934); assay type: functional; settings: Homo sapiens
BJ [9] = test: cells; assay type: functional, cell-based; settings: Homo sapiens
BJ [10] = test: cytotoxicity toward BJ-TERT fibroblasts, dose response, cell-based, RAS-independent, luminescence (AID 1933); assay type: functional; settings: Homo sapiens
[11] = HepG2 cell cytotoxicity, dose response, cytotoxicity control for Shn3 inhibitor project, CellTiter-Glo, cherry-picked (AID 624134); assay type: functional, cell-based
BJ [12] = test: cytotoxicity toward Ras-transformed BJeLR fibroblasts, dose response, cell-based, alamar blue fluorescence, cherrypicked samples (AID 2631); assay type: functional; settings: Homo sapiens;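 also: confirmatory dose-response assay in RAS-dependent BJ fibroblasts engineered with TERT, LT and ST, with cytotoxicity read by fluorescence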
[13] = microbe, parasite or virus in culture; assay type: functional; settings: Mycobacterium tuberculosis
Paired box protein Pax-8 = Paired box protein Pax-8 (Homo sapiens, UniProt Q06710); test: inhibitors of PAX8-driven TPO luciferase reporter, dose response, RMG-I cells, cherry-pick (AID 687027); assay type: functional, cell-based;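 also: luciferase reporter driven by Pax8 target thyroperoxidase promoter measured by SteadyGlo luminescence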
Paired box protein Pax-8, sequence (Q06710 whole entry): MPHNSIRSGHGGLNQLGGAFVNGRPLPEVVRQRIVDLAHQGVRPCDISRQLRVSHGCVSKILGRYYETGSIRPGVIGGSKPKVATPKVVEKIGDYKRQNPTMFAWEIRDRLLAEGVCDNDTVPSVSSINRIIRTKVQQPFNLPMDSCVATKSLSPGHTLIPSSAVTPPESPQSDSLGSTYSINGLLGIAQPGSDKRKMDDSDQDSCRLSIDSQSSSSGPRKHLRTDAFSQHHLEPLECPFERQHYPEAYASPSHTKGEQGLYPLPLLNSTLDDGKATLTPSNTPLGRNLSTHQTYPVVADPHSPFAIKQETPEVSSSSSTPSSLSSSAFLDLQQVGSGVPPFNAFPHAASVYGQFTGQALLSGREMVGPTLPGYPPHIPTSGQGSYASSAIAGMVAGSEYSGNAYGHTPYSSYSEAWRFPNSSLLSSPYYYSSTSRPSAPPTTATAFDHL

[14] = target: T1, Microphthalmia-associated transcription factor (Homo sapiens, UniProt O75030); test: TRPM1 promoter luciferase signal decrease, dose response, MITF inhibitor project, cell-based, SK-MEL-5, cherry-picked, set 3 (AID 493073); assay type: functional
T1 sequence (O75030 whole entry): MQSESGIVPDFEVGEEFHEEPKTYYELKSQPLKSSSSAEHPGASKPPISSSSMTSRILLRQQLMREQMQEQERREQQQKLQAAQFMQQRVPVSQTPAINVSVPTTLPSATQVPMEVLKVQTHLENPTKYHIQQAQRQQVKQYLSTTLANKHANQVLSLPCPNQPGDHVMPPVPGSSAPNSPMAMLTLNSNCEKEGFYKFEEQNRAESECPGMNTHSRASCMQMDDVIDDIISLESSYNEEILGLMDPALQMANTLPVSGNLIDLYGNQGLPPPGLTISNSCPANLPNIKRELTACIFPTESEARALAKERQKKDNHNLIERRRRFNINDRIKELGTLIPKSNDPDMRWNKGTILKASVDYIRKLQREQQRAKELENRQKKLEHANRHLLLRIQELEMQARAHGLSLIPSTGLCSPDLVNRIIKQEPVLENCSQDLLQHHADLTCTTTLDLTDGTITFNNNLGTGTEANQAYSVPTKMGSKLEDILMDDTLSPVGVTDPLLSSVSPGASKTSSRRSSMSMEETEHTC

[15] = target: T2, Endoribonuclease toxin MazF (Escherichia coli K-12, UniProt P0AE70); test: fluorescent RNA oligo signal without MazF, dose response, counter-screen for MazEF activator project, biochemical, fluorescence, single-stranded RNase substrate (AID 588502); assay type: functional
T2 sequence (P0AE70 whole entry): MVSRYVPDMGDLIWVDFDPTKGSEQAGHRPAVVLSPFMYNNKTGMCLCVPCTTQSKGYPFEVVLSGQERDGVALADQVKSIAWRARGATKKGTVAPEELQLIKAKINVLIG

[16] = target: T2, Endoribonuclease toxin MazF; test: MazF toxin RNase activators, dose response, biochemical, fluorescence, single-stranded RNA substrate, uHTS hits (AID 588481); assay type: functional
[17] = target: T3, Heat shock factor protein 1 (Mus musculus, UniProt P38532); test: inhibition of MG132-induced HSE-luciferase signal, confirmation, cell-based, NIH3T3, luminescence, dose retest (AID 2382); assay type: functional;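 also: NIH3T3 fibroblasts with HSF1-driven luciferase reporter stressed by proteasome inhibitor MG132; luminescence from HSF1-driven luciferase expression after 8 hours of MG132 stress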
T3 sequence (P38532 whole entry): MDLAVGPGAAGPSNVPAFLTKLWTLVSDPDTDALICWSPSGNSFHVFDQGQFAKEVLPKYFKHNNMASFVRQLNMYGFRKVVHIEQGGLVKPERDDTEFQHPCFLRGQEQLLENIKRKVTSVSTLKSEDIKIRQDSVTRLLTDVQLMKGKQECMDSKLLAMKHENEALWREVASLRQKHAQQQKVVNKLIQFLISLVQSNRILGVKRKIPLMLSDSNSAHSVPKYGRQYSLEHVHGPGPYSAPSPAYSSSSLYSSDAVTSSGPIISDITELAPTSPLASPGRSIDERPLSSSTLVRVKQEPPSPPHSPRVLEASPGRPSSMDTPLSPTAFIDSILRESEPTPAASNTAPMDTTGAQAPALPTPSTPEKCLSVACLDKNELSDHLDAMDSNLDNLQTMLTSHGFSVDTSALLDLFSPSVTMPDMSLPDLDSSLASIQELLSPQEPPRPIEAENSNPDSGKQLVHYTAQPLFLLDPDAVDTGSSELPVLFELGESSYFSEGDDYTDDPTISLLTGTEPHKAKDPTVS

[18] = target: T4, Rac GTPase-activating protein 1 (Homo sapiens, UniProt Q9H0H5); test: MgcRacGAP GTPase-activating activity inhibitors, confirmation, biochemical, ADP Hunter fluorescence, primary and confirmatory (AID 624330); assay type: functional
T4 sequence (Q9H0H5 whole entry): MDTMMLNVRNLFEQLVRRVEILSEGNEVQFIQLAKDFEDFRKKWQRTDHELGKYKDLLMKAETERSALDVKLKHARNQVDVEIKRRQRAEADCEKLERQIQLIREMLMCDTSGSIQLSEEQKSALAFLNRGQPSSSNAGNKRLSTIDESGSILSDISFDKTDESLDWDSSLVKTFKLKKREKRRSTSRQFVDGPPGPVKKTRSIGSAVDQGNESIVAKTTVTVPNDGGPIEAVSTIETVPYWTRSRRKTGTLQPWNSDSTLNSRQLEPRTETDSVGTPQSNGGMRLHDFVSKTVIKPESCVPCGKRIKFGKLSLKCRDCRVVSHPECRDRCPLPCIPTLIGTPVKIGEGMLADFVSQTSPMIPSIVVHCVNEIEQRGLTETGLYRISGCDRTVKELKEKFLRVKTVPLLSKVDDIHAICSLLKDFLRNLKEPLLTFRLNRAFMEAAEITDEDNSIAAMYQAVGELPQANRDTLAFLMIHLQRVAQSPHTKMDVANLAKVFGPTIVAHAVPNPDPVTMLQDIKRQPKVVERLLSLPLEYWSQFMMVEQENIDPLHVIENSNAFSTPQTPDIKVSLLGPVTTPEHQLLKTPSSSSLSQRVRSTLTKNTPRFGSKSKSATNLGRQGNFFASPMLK

[19] = inhibitors of intracellular T. cruzi replication, confirmation, NIH3T3 host cells, beta-gal luminescence (AID 2044); assay type: functional, cell-based;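 also: intracellular parasites grown in NIH/3T3 mouse fibroblasts as host cells; luminescent beta-galactosidase reporter signal from transgenic T. cruzi replicating inside host cells; inhibitors lower the luminescence signal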
[20] = cytotoxicity toward NIH3T3 fibroblasts, dose response, counter-screen, cell-based, ATP luminescence, mouse fibroblasts (AID 2010); assay type: functional;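 also: cells exposed to compound for about 90 hours before reading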
[21] = A Cell Based Secondary Assay To Explore Cytotoxicity of Compounds that Sensitize Mycobacterium Tuberculosis to Beta-Lactam Antibiotics.; assay type: functional
[22] = target: FAD-linked sulfhydryl oxidase ALR (Homo sapiens, UniProt P55789); test: inhibitors of human ALR sulfhydryl oxidase, dose response, biochemical, H2O2 detection, luminescence, cherry-pick (AID 493248)
FAD-linked sulfhydryl oxidase ALR, sequence (P55789 whole entry): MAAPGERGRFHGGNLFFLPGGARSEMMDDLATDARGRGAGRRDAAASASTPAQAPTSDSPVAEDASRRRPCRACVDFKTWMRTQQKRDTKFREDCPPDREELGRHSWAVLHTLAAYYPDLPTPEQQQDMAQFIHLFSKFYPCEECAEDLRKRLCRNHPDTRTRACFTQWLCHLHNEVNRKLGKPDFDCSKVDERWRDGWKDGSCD

Caspase-6 = target: T5, Caspase-6 (Homo sapiens, UniProt P55212); test: human caspase-6 inhibitors, dose response, biochemical, VEID-R110 fluorescence, cherry-pick (AID 720632)
T5 sequence (P55212 whole entry): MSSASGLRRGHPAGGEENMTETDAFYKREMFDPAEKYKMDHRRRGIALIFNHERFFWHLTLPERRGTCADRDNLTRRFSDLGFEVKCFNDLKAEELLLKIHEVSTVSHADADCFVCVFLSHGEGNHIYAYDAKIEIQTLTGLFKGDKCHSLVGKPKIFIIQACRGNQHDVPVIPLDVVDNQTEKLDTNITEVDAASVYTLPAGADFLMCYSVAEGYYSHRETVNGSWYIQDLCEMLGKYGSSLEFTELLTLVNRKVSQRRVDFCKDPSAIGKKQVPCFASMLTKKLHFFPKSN

Cc1csc(SCC(=O)c2cc(C)n(Cc3cccs3)c2C)n1
active: EC50 [1] 8.09 µM | EC50 [2] 6.24 µM | AC50 (HEK293) 2.29 µM | EC50 [3] 8.74 µM

O=[N+]([O-])c1ccc(O)c(-c2cc(C(F)(F)F)nc(-c3ccccc3)n2)c1
active: EC50 [1] 9.13 µM | EC50 [5] 104 nM | AC50 [6] 2.73 µM | AC50 [7] 906 nM | AC50 (INS1) 1.05 µM | EC50 [3] 9.18 µM | EC50 (Streptococcus) 254 nM | EC50 [8] 2.96 µM | EC50 (BJ [9]) 2.95 µM | EC50 (BJ [10]) 2.44 µM | AC50 [11] 1.61 µM | CC50 [13] 546 nM | AC50 (Paired box protein Pax-8) 811 nM
inconclusive: EC50 (BJ [4]) 2.14 µM | EC50 [2] 8.04 µM | EC50 (BJ [12]) 571 nM

CC(=O)c1cccc(NC(=O)/C=C/c2ccc([N+](=O)[O-])s2)c1
inconclusive: EC50 (BJ [4]) 4.95 µM | EC50 (BJ [9]) > 150 µM | EC50 (BJ [12]) 545 nM
active: EC50 [8] 5.53 µM | AC50 [14] 7.16 µM | EC50 (BJ [10]) 4.44 µM

Cc1ccc(-c2ccccc2NC(=O)C[S+]([O-])CC(=O)Nc2ccc(C)c(Cl)c2)o1 (centres undefined)
inactive: EC50 [15] 41.5 µM | EC50 [16] 34.1 µM

CSc1ccc(S(=O)(=O)NCC(=O)OCCOc2ccccc2)cc1[N+](=O)[O-]
inactive: EC50 [15] > 99 µM | EC50 [16] 25.8 µM

Cc1cc(/C=C2\Cc3ccccc3C2=O)c(C)n1-c1ccccc1
active: AC50 (HEK293) 1.87 µM | EC50 [17] < 160 nM

COc1ccccc1N1C(=O)S/C(=C\c2cc(C)n(C)c2C)C1=O
inactive: EC50 [15] 30.6 µM | EC50 [16] > 99 µM

COC(=O)CCNc1ccc2c(c1)OCCO2
active: AC50 (HEK293) 1.9 µM | IC50 [18] 251 µM | EC50 [17] 1730 nM

Cc1cc(NC(=O)/C(C#N)=C\c2ccc(-c3ccc(SC(F)F)cc3)o2)n(-c2ccccc2)n1
inactive: EC50 [15] 22.8 µM | EC50 [16] > 99 µM

C=CCn1c(=O)/c(=C\c2ccccn2)s/c1=C(/C#N)C(=O)NCC1CCCO1 (centres undefined)
inactive: EC50 [15] > 99 µM | EC50 [16] > 99 µM

CC(=O)CSc1nc2cc3c(cc2cc1C#N)OCCO3
inactive: EC50 [15] 29.5 µM | EC50 [16] > 99 µM

COc1cc(C(=O)Oc2ccccc2/C=N/NC(=O)c2ccc(C)c(Cl)c2)cc(OC)c1OC
> 60 µM (not active): EC50 [20]
active: EC50 [19] 1.17 µM | AC50 (HEK293) 12.9 µM | AC50 (INS1) 0.829 µM | CC50 [21] 2.84 µM

COC(=O)c1nn2c(C(F)(F)F)cc(-c3ccc(Br)o3)nc2c1Br
inactive: EC50 [15] 30.5 µM | EC50 [16] > 99 µM

NNS(=O)(=O)c1ccc2c(c1)Cc1cc(S(=O)(=O)NN)ccc1-2
inactive: EC50 [16] 89.5 µM
active: AC50 [22] 79 nM | EC50 [15] 4.48 µM | AC50 (Caspase-6) 15.8 µM
